# Measured values: PubChem BioAssay AID179 (DTP/NCI, 2004)
# pEC50, pIC50: −log10 of the molar value. “And” between values parts separate entries of the source, which are not always exact repeats. Equal values may be shown once. The source made the active and inactive calls.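 How the source made its calls: active means compounds giving half or more protection of infected cells from virus-caused growth loss, again on retest; inactive means the rest.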 *1 amine or outer side, *2 acyl side, *3 side chain or, on linkers, in order; H or OH if unused. Where a SMILES comes first, the peptide text is derived from it. [ ]: non-standard residue; d: D form. The star is where a group is joined. ξ: configuration not given here. X15 = O=C([C@H]1CCC[C@H]1N[*:1])[*:2]; ξW = NC(Cc1c[nH]c2ccccc12)C(=O)O; ξF = NC(Cc1ccccc1)C(=O)O; Boc = CC(C)(C)OC(=O)*; ξK = NCCCCC(N)C(=O)O; ξT = CC(O)C(N)C(=O)O
# Tested on: CEM cells HIV-1 protection, formazan growth assay
# Assay: NCI AIDS Antiviral Assay
# Settings: for pIC50: measured here: growth of uninfected CEM cells
# Outline: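 Steps: treat uninfected and HIV-1-infected human CEM cells at five drug levels; quantify growth by soluble formazan; retest any compound reaching 50% protection; classify actives from the retest.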
Structure (SMILES),pEC50,pIC50,outcome
CN(O)C(=O)c1ccccc1,< 2.78,2.86,
Clc1cc2nnn(C3CCCCO3)c2cc1Cl (stereo not given),< 3.70,< 3.70,
COc1cccc(/C=C/C(=O)c2ccccc2)c1,< 4.24,4.96,
CC(C)=CCC[C@@H](C)C1=C(Nc2ccccc2F)C(O)=C(C)C(=O)C1=O,< 3.70,5.67,
O=C(O)c1ccccc1-c1c2ccc(=O)c(Br)c-2oc2c(Br)c(O)ccc12,< 3.70,4.43,
O=[N+]([O-])c1ccc(N2CCOS(=O)OCC2)cc1,< 3.70,< 3.70,
C=CCn1c(=O)c(C(=O)NC(=O)OCC)cn(C2CCCCC2)c1=O,< 3.84,< 3.84,
O=C(O)c1ccc(O)c(N=Nc2cc(S(=O)(=O)O)c3cccnc3c2O)c1,4.09,3.65,
OC(c1ccc2c(c1)OCO2)c1ccc2c(c1)OCO2,< 3.70,3.75,
CN(C)CCSc1ccc(-c2ccc(-c3ccc(SCCN(C)C)cc3)nn2)cc1,5.16,5.09,
C=CC1=CSNN1,< 3.36,3.46,
O=C(O)CC/C(=N\Nc1nsc2ccccc12)c1ccccc1,< 4.94,5.09,
O=C1CSC(c2ccccc2)N1c1ccc(-c2ccc(-n3c(-c4ccccc4)nc4ccccc4c3=O)cc2)cc1 (stereo not given),< 3.70,4.35,
CCCCCCCCCCCCCCCc1cc(=O)c2c(O)cc(O)cc2o1,,,inactive
O=c1c2cc3c(=O)n(O)c(=O)c3cc2c(=O)n1O,< 3.70,< 3.70,
COc1ccc(/C(Nc2ccccc2)=C(\CCl)c2ccccc2)cc1OC,< 3.70,4.50,
O=C(O)c1c(O)ccc(N=Nc2ccc(N=Nc3ccc4c(S(=O)(=O)O)cccc4c3O)c3ccccc23)c1O,< 4.00,< 4.00,
O=c1c2ccc3cccc4c(=O)cc(c5ccccc15)-c2c34,,,inactive
CCOC1=C(c2ccccc2)Oc2cccnc2-n2cccc21,< 3.70,3.86,
CC(C)(NC(=O)C(C)(C)NC(=O)OCc1ccccc1)C(=O)O (HELM PEPTIDE1{[O=C(OCc1ccccc1)[*:2]].[Aib].[Aib]}$$$$V2.0),< 3.70,< 3.70,
COC(=O)C(Cc1c[nH]c2ccccc12)NC(=O)C(Cc1c[nH]c2ccccc12)NC(=O)C(Cc1c[nH]c2ccccc12)NC(=O)C(Cc1c[nH]c2ccccc12)NC(=O)C(Cc1c[nH]c2ccccc12)NC(=O)OC(C)(C)C (stereo not given) (Boc-WWWWW-OMe; configuration not given here),< 3.70,4.56,

Structure (SMILES),pEC50,pIC50,outcome
Nc1ncc(CN2CCOCC2)c(-c2ccccc2O)n1,< 3.70,< 3.70,
O=S1(=O)C2CCCC1C(Cl)CC2 (stereo not given),< 4.32,< 4.32,
O=C1CCC2c3[nH]c4ccccc4c3CCN12 (stereo not given),< 3.70,3.73,
Cc1cccc(C)c1NC(=O)C(=O)CC(=O)c1sc(Nc2c(C)cccc2C)nc1C,< 3.70,< 3.70,
CCOC(=O)c1cc2c(cn1)[nH]c1cccc(N)c12,< 3.58,< 3.58,
CCCC1(N)CC(OC)OC(C)C1O (stereo not given),< 3.70,< 3.70,
Cc1cc(/C(C#N)=C/c2ccc(N(C)C)cc2)cc(C)c1[N+](=O)[O-],< 5.70,6.98,
O=C(CC(=O)c1cccc2ccccc12)C(=O)NC1C2CC3CC(C2)CC1C3 (stereo not given),,,inactive
Cc1cccc(CC(Cc2ccc(C)cc2C(=O)O)C(=O)O)c1 (stereo not given),< 3.70,< 3.70,
C=C=C(C)[Si](C)(C)C,< 3.70,< 3.70,
CC(C)=CCCC(C)C1=C(O)C(=O)C(C)=CC1=O (stereo not given),< 5.70,6.23,
CCn1c(=O)ccc2ccc(N(CCO)CCO)nc21,< 3.70,3.82,
CC(C)NC(=O)OCc1c(COC(=O)NC(C)C)n(C)c2c1ccc1sccc12,< 3.70,5.67,
Cc1ccc2nnn3c(=N)nc(N)nc3c2c1,< 4.10,< 4.10,
CC1=C(N2CC2)C(=O)c2nc3n(c2C1=O)CCC3OC(=O)CCl (stereo not given),< 3.70,6.16,
CC(=O)OCC1OC(OC2C(COC(C)=O)OC(Sc3ccccc3C)C(OC(C)=O)C2OC(C)=O)C(OC(C)=O)C(OC(C)=O)C1OC(C)=O (stereo not given),< 4.60,< 4.60,
COC(=O)c1cc(C)ccc1C1CN=NC12Cc1cccc(C)c1C2=O (stereo not given),< 3.70,4.57,
Nc1nc(N)c2cnnn2n1,< 3.53,< 3.53,
N/C(CCCC/C(N)=N/O)=N\O,< 3.70,< 3.70,
CN(C(=O)CCC(=O)O)c1ccccc1C(=O)O,< 3.70,< 3.70,
COc1ccc(C2c3cc4c(cc3C(O)C3CCC(=O)N23)OCO4)cc1 (stereo not given),< 3.70,< 3.70,

Structure (SMILES),pEC50,pIC50,outcome
NC(=O)CCCNC(=O)c1ccccc1SC(=O)CCCC[n+]1ccccc1,6.19,4.79,
Cc1ccc(S(=O)(=O)N2CCCCC2)cc1,< 3.70,4.14,
OC1(c2ccccc2)c2ccccc2NC2=NCCN21 (stereo not given),< 3.70,3.96,
CC(C)C1=C(O)C2=C(C(=O)C1=O)C1(C)CCCC(C)(C)C1CC2O (stereo not given),< 3.70,4.84 and 4.86,
CC[C@]1(O)C[C@H]2CN(CCc3c([nH]c4ccccc34)[C@@](C(=O)OC)(c3cc4c(cc3OC)N(C=O)[C@H]3[C@@](O)(C(=O)OC)[C@H](OC(C)=O)[C@]5(CC)C=CCN6CC[C@]43[C@@H]65)C2)C1,< 7.52,9.28,
COC[C@H]1OC(=O)c2coc3c2[C@@]1(C)C1=C(C3=O)[C@@H]2CCC(=O)[C@@]2(C)C[C@H]1OC(C)=O,,,inactive
CCOC(=O)C1=C(C)N(Cc2ccccc2)C(C)=C(C(=O)OCC)C1c1ccccc1O,< 4.78,< 4.78,
Cc1cc(-c2ccc(C(=O)C(c3ccccc3)(c3ccccc3)c3ccccc3)[nH]2)on1,< 3.70,4.73,
CCCCCCCCCCCCCCNCC(OCC)OCC,< 3.70,5.03,
COc1ccc(N2C=Nn3c(nc4sc5c(c4c3=O)CCCC5)C2)cc1,< 4.30,< 4.30,
O=S1c2ccccc2N=C(c2cccc3ccccc23)CC1c1cccc2ccccc12 (stereo not given),< 4.22,< 4.22,
NC(CSS(=O)(=O)O)=NCCCCN=C(N)CSS(=O)(=O)O,< 3.70,< 3.70,
COc1ccc2nc3cccc([N+](=O)[O-])c3c(NCCNCCN(C)C)c2c1,< 5.70,6.98,
O=C(/C=C(\C(=O)c1cccs1)c1cccs1)c1ccc(C(=O)/C=C(\C(=O)c2cccs2)c2cccs2)cc1,< 3.70,< 3.70,
Clc1ccccc1/C=C\C1(c2ccccc2)OCCO1,< 3.70,4.98,
C1C[S+]2CC[S+]1CC2,< 3.70,< 3.70,
COc1cc2c(c3c1[C@@H](O)[C@@H](C)[C@@H](C)O3)C=CC(C)(C)O2,< 3.70,4.12,
Cc1cc2c(cc1C)NC(=O)C(NC(=O)c1ccc(Cl)cc1)C=N2 (stereo not given),< 3.70,< 3.70,
COC1OC(C(C)Br)C2OC(C)(C)OC12 (stereo not given),< 3.70,< 3.70,
O=c1c(O)c(-c2cc(O)c(O)c(O)c2)oc2cc(O)ccc12,< 3.08,4.93,
C#CC1(O)CCCCCCCCC2(CCCCCCCC1)OCCO2,< 3.70,4.59,

Structure (SMILES),pEC50,pIC50,outcome
O=C(c1nc2ccc(Cl)cc2[nH]c1=O)C(O)c1ccco1 (stereo not given),< 5.09,5.59,
CC(C)(C)N/N=C(\C(=O)Nc1nc(=S)[nH][nH]1)C1C(=O)Nc2ccccc2S1=O (stereo not given),,,inactive
COc1ccc(C2ON(c3ccccn3)CC=C2C)cc1 (stereo not given),< 4.04,4.08,
CCc1ccc2nccc(NCCCN(C)C)c2c1[N+](=O)[O-],< 3.70,4.06,
O=C(N/C(=C\c1c(O)ccc2ccccc12)c1nc2ccccc2[nH]1)c1ccccc1,< 4.65,< 4.65,
CC1=NN(C(=O)CC(=O)Nc2ccc(C)cc2)C(=O)C1N=Nc1ccc(C(=O)O)cc1 (stereo not given),< 3.70,4.40,
CC1=NS(=O)(=O)c2ccccc2N1,< 2.90,< 2.90,
COc1c(C)c(C/C=C(\C)CCCCO)c(OC)c2ccccc12,< 3.70,4.64,
CC1CCC2(CCN(CCCN(C)C)CC2)C1 (stereo not given),,,inactive
Cc1nc(C(N)=S)sc1C(=O)/C=C/c1cccc(O)c1,< 4.07,< 4.07,
COc1cc(/C=C2\C(=O)N(c3cccc([N+](=O)[O-])c3)C(c3ccccc3)S2(=O)=O)cc(OC)c1OC (stereo not given),,,inactive
C1CNCCNCCNCCN1,,,inactive
O=C(NN=C1CCN(Cc2ccccc2)CC1)C(O)(c1ccccc1)c1ccccc1,< 3.70,< 3.70,
CCOC(=O)C(Cc1c(-c2[nH]c3ccccc3c2CC(NC(=O)CNC(C)=O)C(=O)OCC)[nH]c2ccccc12)NC(=O)CNC(C)=O (stereo not given),< 4.00,4.66,
O=C(O)c1ccc(CSc2ccccc2C(=O)O)cc1,< 3.90,< 3.90,
COc1ccc(C(=C(c2ccc(OC)cc2)c2ccc(OC)cc2)c2ccc(OC)cc2)cc1,< 4.00,4.33,
CC(O)C1NC(=O)C(CCCCN)NC(=O)C(Cc2c[nH]c3ccccc23)NC(=O)C(Cc2ccccc2)NC(=O)[C@H]2CCC[C@H]2NC(=O)C(Cc2ccccc2)NC1=O (stereo not given in full) (cyclo([X15][ξF][ξW][ξK][ξT][ξF])),< 3.70,< 3.70,
COc1ccc(/C=C2\CN(C)CC3=C2OC(N)=C(C#N)C3c2ccc(OC)cc2)cc1 (stereo not given),< 3.70,4.72,
O[C@H]1[C@H](O)[C@@H](O)CN2CC[C@H](O)[C@H]12,3.69,2.90,
COC1/C=C\OC2(C)Oc3c(C)c(O)c4c(O)c(c(/C=N\NC(=O)CC(=O)N/N=C/c5c6c(O)c7c(O)c(C)c8c(c7c5O)C(=O)C(C)(O/C=C/C(OC)C(C)C(OC(C)=O)C(C)C(O)C(C)C(O)C(C)/C=C/C=C(C)C(=O)N6)O8)c(O)c4c3C2=O)NC(=O)/C(C)=C\C=C/C(C)C(O)C(C)C(O)C(C)C(OC(C)=O)C1C (stereo not given),< 3.94,4.06,
Cc1csc([C@H]2CCC3[C@@H]4CC=C5C[C@@H](O)CC[C@]5(C)C4CC[C@@]32C)n1 (stereo not given in full),< 4.17,< 4.17,
